Measurements reported in article PMC4805251, “Novel Antimicrobial Peptides EeCentrocins 1, 2 and EeStrongylocin 2 from the Edible Sea Urchin Echinus esculentus Have 6-Br-Trp Post-Translational Modifications” (PLoS ONE, 2016).
≈ marks a conversion by molar mass, not a printed value. Like-named read-outs stand apart in the source and are kept apart here. Square brackets hold non-standard residues; d marks the D form. Peptide text beside a SMILES is read from it. Trp(6-Br) = N[C@@H](Cc1c[nH]c2cc(Br)ccc12)C(=O)O

Columns and labels:
Format in all cases: cell-based
[1] = system: Bacillus subtilis (ATCC 23857)
Excerpt: (§1) Organic phase extract, SPE eluates and HPLC-fractions were screened for antibacterial activity against two strains of Gram-positive and two strains of Gram-negative bacteria; Corynebacterium glutamicum (ATCC 13032), Staphylococcus aureus (ATCC 9144), Pseudomonas aeruginosa #1 (ATCC 27853) and Escherichia coli #1 (ATCC 25922). For extended antimicrobial bioactivity screening, the following bacterial strains were used, three strains of Gram-positive bacteria; S. epidermidis #1 (5179-R1) kindly provided by Holger Rohde, S. epidermidis #2, RP62A (ATCC 35984) and Bacillus subtilis (ATCC 23857) in addition to the Gram-negative P. aeruginosa #2, PA 01 (ATCC 15692, DSM 19880) and E. coli #2, NR 698 (MC4100/ptD4213).
(§2) Cultures stored at -80°C were smeared onto agar plates and cultured for 24 h at 35°C. One colony of each bacterial strain was transferred to 5 ml liquid Müller-Hinton (MH, Difco, Lawrence, KS, USA) medium in a glass tube and left shaking at room temperature overnight at 600 rpm. The cultures of actively growing bacteria (20 μl) were further inoculated in 5 ml MH medium and left shaking for 2 h at room temperature. The antibacterial assays were performed as previously described by. Briefly, the bacterial cultures were diluted with medium to 1.3–1.5 × 10^4 bacteria/ml final concentrations and an aliquot of 50 μl was added to each well in 96-well Nunclon^TM microtiter plates (Nagle Nunc Int., Denmark) preloaded with 50 μl test sample solutions, i.e. extracts, eluates or peptides.
(§3) The test plates were incubated for 24 h at 35°C with optical density (OD595) recorded every hour using an Envision 2103 multilabel reader, controlled by the Wallac Envision manager (PerkinElmer, CT, USA). Antibacterial activity was defined as a sample showing >90% inhibition (as measured by optical density) compared to the negative (growth) controls, consisting of bacteria and water. Oxytetracycline (20 μM) served as a positive (inhibition) control. The minimum inhibitory concentration (MIC) was defined as the lowest concentration of a sample displaying >90% inhibition.
(§4) ACN-phases and SPE eluates were tested with two-fold serial dilutions ranging from 5.0 to 0.005 mg/ml (5.0, 2.5, 1.25, 0.63, 0.31, 0.16, 0.08, 0.04, 0.02, 0.01, 0.005 mg/ml) whereas HPLC-fractions were tested undiluted for antibacterial activity. Pure, native peptides and synthetic peptides (described in section 2.11) were tested for antimicrobial activity in concentrations ranging from 100 to 0.1 μM in two-fold serial dilutions (100, 50, 25, 12.5, 6.25, 3.13, 1.56, 0.78, 0.39, 0.20, 0.10 μM). Antimicrobial assays involving natural peptides (i.e. fractionated natural material) were run only once due to limited quantities, whereas all other assays were run in triplicates.

[2] = system: Corynebacterium glutamicum (ATCC 13032); conditions: for MIC C. glutamicum: ATCC 13032, 24 h
Excerpt: as §1, §2, §3, §4

[3] = system: E. coli #2, NR 698 (MC4100/ptD4213)
Excerpt: as §1, §2, §3, §4

[4] = system: Escherichia coli #1 (ATCC 25922)
Excerpt: as §1, §2, §3, §4

[5] = system: P. aeruginosa #2, PA 01 (ATCC 15692, DSM 19880); conditions: for MIC P. aeruginosa #2: ATCC 15692, 24 h
Excerpt: as §1, §2, §3, §4

[6] = system: Pseudomonas aeruginosa #1 (ATCC 27853)
Excerpt: as §1, §2, §3, §4

[7] = system: S. epidermidis #1 (5179-R1); conditions: for MIC S. epidermidis #1: #1 (5179-R1, 24 h)
Excerpt: as §1, §2, §3, §4

[8] = system: S. epidermidis #2, RP62A (ATCC 35984); conditions: for MIC S. epidermidis #2: ATCC 35984, 24 h
Excerpt: as §1, §2, §3, §4

[9] = system: Staphylococcus aureus (ATCC 9144); conditions: for MIC S. aureus: ATCC 9144, 24 h
Excerpt: as §1, §2, §3, §4

Aureobasidium pullulans = conditions: for MIC A. pullulans: 24 h
Procedure: (§5) The synthetic peptides (see section 2.11) were also screened for antifungal activity against Candida albicans (ATCC 10231), Saccharomyces cerevisiae, Rhodotorula sp., Aureobasidium pullulans and Cladosporium sp. The antifungal assay was performed as described previously. Briefly, fungal spores were dissolved in potato dextrose broth (Difco, Lawrence, KS, USA) to a concentration of 4 × 10^5 spores/ml. The spores (50 μl) were inoculated on 96-well Nunclon^TM microtiter plates containing the synthetic peptides (50 μl) dissolved in MQ-H2O. […] MIC was defined as the lowest concentration of peptide giving no visible fungal growth. The negative (growth) control contained medium and fungal solution.
as §4

[10] = system: Candida albicans (ATCC 10231); conditions: for MIC C. albicans: ATCC 10231, 24 h
Procedure: as §5, §4

Cladosporium sp. = conditions: for MIC Cladosporium sp.: 24 h
Procedure: as §5, §4

Rhodotorula sp. = system: Rhodotorula sp.
Procedure: as §5, §4

Saccharomyces cerevisiae = conditions: for MIC S. cerevisiae: 24 h
Procedure: as §5, §4

[11] = system: Gram-positive and Gram-negative bacteria (tested strains); conditions: 24 h
Excerpt: as §1, with “(MC4100/ptD4213). […]” for “(MC4100/ptD4213).”
The test plates were incubated for 24 h at 35°C with optical density (OD595) recorded every hour using an Envision 2103 multilabel reader, controlled by the Wallac Envision manager (PerkinElmer, CT, USA). […]
ACN-phases and SPE eluates were tested with two-fold serial dilutions ranging from 5.0 to 0.005 mg/ml (5.0, 2.5, 1.25, 0.63, 0.31, 0.16, 0.08, 0.04, 0.02, 0.01, 0.005 mg/ml) whereas HPLC-fractions were tested undiluted for antibacterial activity. […] Antimicrobial assays involving natural peptides (i.e. fractionated natural material) were run only once due to limited quantities, whereas all other assays were run in triplicates.

SMILES: CC[C@H](C)[C@H](NC(=O)[C@@H](N)CC(=O)O)C(=O)NCC(=O)N[C@@H](CCCCN)C(=O)N[C@@H](Cc1ccc(O)cc1)C(=O)N[C@@H](CS)C(=O)NCC(=O)N[C@@H](Cc1ccc(O)cc1)C(=O)N[C@@H](C)C(=O)N[C@@H](Cc1c[nH]cn1)C(=O)N[C@@H](C)C(=O)N[C@@H](CC(C)C)C(=O)N[C@@H](CC(N)=O)C(=O)O (stereo in doubt) [EeCentrocin 1 LC]
- MIC B. subtilis ([1]; ATCC 23857, 24 h): >100 µM
- MIC C. glutamicum [2]: >100 µM
- MIC E. coli #2 ([3]; MH medium, 24 h at 35°C, OD595, >90% inhibition, value of Table 2, triplicates): >100 µM
- MIC E. coli #1 ([4]; ATCC 25922, 24 h): >100 µM
- MIC P. aeruginosa #2 [5]: >100 µM
- MIC P. aeruginosa #1 ([6]; ATCC 27853, 24 h): >100 µM
- MIC S. epidermidis #1 [7]: >100 µM
- MIC S. epidermidis #2 [8]: >100 µM
- MIC S. aureus [9]: >100 µM
- MIC A. pullulans (Aureobasidium pullulans): >100 µM
- MIC C. albicans [10]: >100 µM
- MIC Cladosporium sp. (Cladosporium sp.): >100 µM
- MIC Rhodotorula sp. (Rhodotorula sp.; potato dextrose broth, 24 h at room temperature, visual, no visible fungal growth, value of Table 2, triplicates): >100 µM
- MIC S. cerevisiae (Saccharomyces cerevisiae): >100 µM

SMILES: CC(C)C[C@H](NC(=O)[C@H](C)NC(=O)CNC(=O)[C@H](CS)NC(=O)[C@H](C)NC(=O)[C@H](CCCCN)NC(=O)[C@H](CO)NC(=O)[C@H](C)NC(=O)[C@H](Cc1ccccc1)NC(=O)CNC(=O)[C@H](C)NC(=O)[C@@H](NC(=O)[C@H](CCCCN)NC(=O)[C@H](CCCNC(=N)N)NC(=O)CNC(=O)[C@H](C)NC(=O)[C@H](CC(N)=O)NC(=O)[C@H](CCCNC(=N)N)NC(=O)[C@@H](NC(=O)[C@H](CCCCN)NC(=O)[C@H](CC(=O)O)NC(=O)[C@@H](NC(=O)[C@@H](NC(=O)[C@H](CCCNC(=N)N)NC(=O)[C@H](CCCNC(=N)N)NC(=O)[C@H](Cc1c[nH]c2cc(Br)ccc12)NC(=O)[C@H](Cc1c[nH]c2cc(Br)ccc12)NC(=O)CN)[C@@H](C)O)C(C)C)C(C)C)C(C)C)C(=O)NCC(=O)N[C@@H](Cc1c[nH]cn1)C(=O)O [EeCentrocin 1 HC-diBr] (H-G[Trp(6-Br)][Trp(6-Br)]RRTVDKVRNAGRKVAGFASKACGALGH-OH)
- MIC raw data B. subtilis ([1]; parallel 1 of three): 1.56 µM (≈ 5.33 µg/mL)
- MIC raw data B. subtilis ([1]; parallel 2 of three): 1.56 µM (≈ 5.33 µg/mL)
- MIC raw data B. subtilis ([1]; parallel 3 of three): 0.78 µM (≈ 2.66 µg/mL)
- MIC C. glutamicum [2]: 0.78 µM (≈ 2.66 µg/mL)
- MIC raw data C. glutamicum ([2]; parallel 1 of three): 0.78 µM (≈ 2.66 µg/mL)
- MIC raw data C. glutamicum ([2]; parallel 2 of three): 0.78 µM (≈ 2.66 µg/mL)
- MIC raw data C. glutamicum ([2]; parallel 3 of three): 0.39 µM (≈ 1.33 µg/mL)
- MIC raw data E. coli #2 ([3]; parallel 1 of three): 1.56 µM (≈ 5.33 µg/mL)
- MIC raw data E. coli #2 ([3]; parallel 2 of three): 1.56 µM (≈ 5.33 µg/mL)
- MIC raw data E. coli #2 ([3]; parallel 3 of three): 0.78 µM (≈ 2.66 µg/mL)
- MIC raw data E. coli #1 ([4]; parallel 1 of three): 1.56 µM (≈ 5.33 µg/mL)
- MIC raw data E. coli #1 ([4]; parallel 2 of three): 1.56 µM (≈ 5.33 µg/mL)
- MIC raw data E. coli #1 ([4]; parallel 3 of three): 0.78 µM (≈ 2.66 µg/mL)
- MIC P. aeruginosa #2 [5]: 3.13 µM (≈ 10.7 µg/mL)
- MIC raw data P. aeruginosa #2 ([5]; parallel 1 of three): 3.13 µM (≈ 10.7 µg/mL)
- MIC raw data P. aeruginosa #2 ([5]; parallel 2 of three): 3.13 µM (≈ 10.7 µg/mL)
- MIC raw data P. aeruginosa #2 ([5]; parallel 3 of three): 3.13 µM (≈ 10.7 µg/mL)
- MIC raw data P. aeruginosa #1 ([6]; parallel 1 of three): 1.56 µM (≈ 5.33 µg/mL)
- MIC raw data P. aeruginosa #1 ([6]; parallel 2 of three): 1.56 µM (≈ 5.33 µg/mL)
- MIC raw data P. aeruginosa #1 ([6]; parallel 3 of three): 1.56 µM (≈ 5.33 µg/mL)
- MIC S. epidermidis #1 [7]: 6.25 µM (≈ 21.3 µg/mL)
- MIC raw data S. epidermidis #1 ([7]; parallel 1 of three): 6.25 µM (≈ 21.3 µg/mL)
- MIC raw data S. epidermidis #1 ([7]; parallel 2 of three): 6.25 µM (≈ 21.3 µg/mL)
- MIC raw data S. epidermidis #1 ([7]; parallel 3 of three): 6.25 µM (≈ 21.3 µg/mL)
- MIC S. epidermidis #2 [8]: 3.13 µM (≈ 10.7 µg/mL)
- MIC raw data S. epidermidis #2 ([8]; parallel 1 of three): 3.13 µM (≈ 10.7 µg/mL)
- MIC raw data S. epidermidis #2 ([8]; parallel 2 of three): 3.13 µM (≈ 10.7 µg/mL)
- MIC raw data S. epidermidis #2 ([8]; parallel 3 of three): 3.13 µM (≈ 10.7 µg/mL)
- MIC S. aureus [9]: 3.13 µM (≈ 10.7 µg/mL)
- MIC raw data S. aureus ([9]; parallel 1 of three): 3.13 µM (≈ 10.7 µg/mL)
- MIC raw data S. aureus ([9]; parallel 2 of three): 3.13 µM (≈ 10.7 µg/mL)
- MIC raw data S. aureus ([9]; parallel 3 of three): 1.56 µM (≈ 5.33 µg/mL)
- MIC A. pullulans (Aureobasidium pullulans): 6.25 µM (≈ 21.3 µg/mL)
- MIC raw data A. pullulans (Aureobasidium pullulans; parallel 1 of three): 6.25 µM (≈ 21.3 µg/mL)
- MIC raw data A. pullulans (Aureobasidium pullulans; parallel 2 of three): 6.25 µM (≈ 21.3 µg/mL)
- MIC raw data A. pullulans (Aureobasidium pullulans; parallel 3 of three): 6.25 µM (≈ 21.3 µg/mL)
- MIC C. albicans [10]: 50 µM (≈ 171 µg/mL)
- MIC raw data C. albicans ([10]; parallel 1 of three): 50 µM (≈ 171 µg/mL)
- MIC raw data C. albicans ([10]; parallel 2 of three): 50 µM (≈ 171 µg/mL)
- MIC raw data C. albicans ([10]; parallel 3 of three): 50 µM (≈ 171 µg/mL)
- MIC Cladosporium sp. (Cladosporium sp.): >100 µM
- MIC raw data Cladosporium sp. (Cladosporium sp.; parallel 1 of three): >100 µM
- MIC raw data Cladosporium sp. (Cladosporium sp.; parallel 2 of three): >100 µM
- MIC raw data Cladosporium sp. (Cladosporium sp.; parallel 3 of three): >100 µM
- MIC raw data Rhodotorula sp. (Rhodotorula sp.; parallel 1 of three): 12.5 µM (≈ 42.7 µg/mL)
- MIC raw data Rhodotorula sp. (Rhodotorula sp.; parallel 2 of three): 12.5 µM (≈ 42.7 µg/mL)
- MIC raw data Rhodotorula sp. (Rhodotorula sp.; parallel 3 of three): 12.5 µM (≈ 42.7 µg/mL)
- MIC S. cerevisiae (Saccharomyces cerevisiae): >100 µM
- MIC raw data S. cerevisiae (Saccharomyces cerevisiae; parallel 1 of three): >100 µM
- MIC raw data S. cerevisiae (Saccharomyces cerevisiae; parallel 2 of three): >100 µM
- MIC raw data S. cerevisiae (Saccharomyces cerevisiae; parallel 3 of three): >100 µM
- MIC range towards bacteria [11]: 0.78 to 6.25 µM
